B1: BDNF: brain-derived neurotrophic factor (protein, UniProt P23560 19-247, looked up)
Neurotrophic factor BDNF …: APMKEANIRGQGGLAYPGVRTHGTLESVNGPKAGSRGLTSLADTFEHVIEELLDEDQKVRPNEENNKDADLYTSRVMLSSQVPLEPPLLFLLEEYKNYLDAANMSMRVRRHSDPARRGELSVCDSISEWVTAADKKTAVDMSGGTVTVLEKVPVSKGQLKQYFYETKCNPMGYTKEGCRGIDKRHWNSQCRTTQSYVRALTMDSKKRIGWRFIRIDTSCVCTLTIKRGR
B2: GDNF: Glial cell line derived neurotrophic factor (protein, UniProt P39905 78-211, looked up)
Glial cell line-derived …: SPDKQMAVLPRRERNRQAAAANPENSRGKGRRGQRGKNRGCVLTAIHLNVTDLGLGYETKEELIFRYCSGSCDAAETTYDKILKNLSRNRRLVSDKVGQACCRPIAFDDDLSFLDDNLVYHILRKHSAKRCGCI

Assays:
[1] = test system: human SH-SY5Y neuroblastoma cells; experiment: Differentiation model / neurite length in human neuroblastoma cells; format: cell-based; details: 14 days; for differentiation / neurite length in comparison to 9-methyl-β-carboline: SH-SY5Y cells; for neurite length: vs control group, P<0.001; on differentiation / neurite length in comparison to 9-methyl-β-carboline: key: +: marginally better than 9-methyl-β-carboline; ±: equal to 9-methyl-β-carboline; −: marginally worse than 9-methyl-β-carboline
From the text: Human neuroblastoma cells were utilised for this model. These are permanent cells, which are present as an indifferent type in culture. They can be activated to differentiate, i.e. transformation into neuronal cells, by addition of specific substances such as retinoic acid, […] (BDNF) or activator of the enzyme, protein kinase C to the culture medium. We used this cell system to analyse whether beta-carbolines can transform the indifferent cells into the neuronal type. Criteria were: less proliferation (less cells per field of view); smaller cell bodies (transformation from the indifferent type to the neuronal type); cytodendrites (neuritis), which provide connections to neighbouring cells or clusters of neighbouring cells.
Human SH-SY5Y neuroblastoma cells were incubated in culture for 14 days with solvent (Ko) or test substance. A shift of the graph to the right side for a test substance, pointed to an increase of neurite length, when compared to the graph for the control substance. Statistical differences between the treated groups were calculated with the Tukey's Multiple Comparison-Test.
Shown are the cumulative frequency distributions of neurite lengths, determined in at least 20 randomly selected visual fields (each 640.000 μm^2) in three independent experiments. A steep rise pointed to a predominance of short neuritis, wherein for example in control cells, a less steep rise signified a greater number of longer neurites. The horizontal maximum indicated the maximal neurite length of the respective treatment group. […] The effects are dose- and substance-dependent: 1-methyl-β-carboline <6-methoxy-9-methyl-β-carboline <9-methyl-β-carboline <9-fluorethyl-β-carboline).
The effects of the other inventive β-carbolines (compounds A-L and VI-XX) on neurite length were determined, as described above, in human SH-SY5Y neuroblastoma cells after 14 days.

[2] = test system: BDNF, GDNF, NGF and NPY in human SH-SY5Y neuroblastoma cells; experiment: Gene expression of growth factors by reverse transcriptase-PCR (Table 2 summary); format: cell-based; details: after 2 and 14 days; further: key: +: marginally better than 9-methyl-β-carboline; ±: equal to 9-methyl-β-carboline; −: marginally worse than 9-methyl-β-carboline
Experimental: (§1) Next, it was investigated, whether the substances could induce the formation of nerve growth factors in human SH-SY5Y neuroblastoma cell. After 2 and 14 days the cells were harvested and the expression of the target gene and the house keeping gene was determined via reverse transcriptase-PCR.
The effects of the other inventive β-carbolines (compounds A-L and VI-XX) on the gene expression of BDNF, GDNF, NGF and NPY were determined, as described above, in human SH-SY5Y neuroblastoma cells after 2 and 14 days.

[3] = test system: inner ear of guinea pigs; experiment: Prophylaxis of hearing damages in an animal model, gentamicin and etacrynic acid (Example 30); format: in vivo; details: infusion to the round window recess, gentamicin and etacrynic acid i.v.
Experimental: A solution containing β-carboline was infused continuously into the recess in front of the membrane of the round window of guinea pigs by a osmotic mini-pump for three days. The following β-carbolines were tested individually in this experiment: 9-methyl-β-carboline, compounds XI, XII, XVIII, XIX as well as C to L.
Then, a standard dose of gentamicin and etacrynic acid was injected intravenously into guinea pigs. Gentamicin and etacrynic acid damage the inner ear. Typically, they are used as toxins to induce deafness in such studies. The infusion was continued for further two days. Then, the electrophysiological activity of the nerve cells of the brain stem, which transmit the impulses of the inner ear, was deduced after acoustic irradiation of the ear with […]. The non-β-carboline-treated ear served as intraindividual control (Prieskorn D M, Miller J M. Technical report: chronic and acute intracochlear infusion in rodents. Hear Res, 2000; 140(1-2): 212-215). Moreover, animals were infused with 9-Me-BC only but not with gentamicin as a further control.
The measured electrophysiological activity of the nerve cells of the acoustic nerve (hearing threshold) served as a measure of the degree of therapeutic effect of the used β-carbolines on the inner ear. As can be learned from Table 3, the used β-carbolines show the increase in electrophysiological activity of the nerve cells of the acoustic nerve. It can be concluded from this that β-carbolines are useful for the treatment of hearing damages, vertigo, and vestibular disorders.

[4] = test system: BDNF (brain-derived neurotrophic factor) in human SH-SY5Y cells; experiment: Relative gene expression of BDNF (FIG. 4A); format: cell-based; details: SH-SY5Y cells
Experimental: as §1

[5] = test system: transcription factor CREB in SH-SY5Y cells; experiment: Dual luciferase method for intracellular cascades (FIG. 5); format: cell-based, human; details: dose-dependent activating effect, 48 h incubation, three independent experiments
From the text: The effects of β-carbolines on several intracellular cascades were investigated. Of them it is known, that at their respective ends, several transcription factors are formed in the cell nucleus, that in turn activate the transcription of a group of further genes. The dual luciferase method was used. One luciferase served as transfection control, whereas the second is coupled to the appropriate specific binding sequence of the DNA.

[6] = test system: cells of the spiral ganglion of the inner ear; details: 48 hours of culture; cited from earlier work

Molecule | differentiation / neurite length in comparison to 9-methyl-β-carboline [1] | gene expression of BDNF, GDNF, NGF and NPY in comparison to 9-methyl-β-carboline [2] | effect on the inner ear (electrophysiological activity, hearing threshold) in comparison to 9-methyl-β-carboline [3] | neurite length ([1]; 110 μM) | neurite length ([1]; 50 μM) | BDNF transcription [4] | formation of the transcription factor CREB relative to the level in control cells [5] | survival of cells of the spiral ganglion [6]
c1ccc(Cn2c3ccccc3c3ccncc32)cc1 [compound I] | − | − | − |  |  |  |  | 
Cn1c2ccc(OC(F)(F)F)cc2c2ccncc21 [compound (XII)] | + | + | + |  |  |  |  | 
CN(C)CCn1c2ccccc2c2ccncc21 [compound L] | + | ± | + |  |  |  |  | 
COc1ccc2c(c1)c1ccncc1n2C1CC1 [compound (XI)] | + | ± | ± |  |  |  |  | 
CCCCCCCCCCCCCCn1c2ccccc2c2ccncc21 [compound C] | ± | ± | + |  |  |  |  | 
CCCn1c2ccccc2c2ccncc21 [compound A] | − | − | − |  |  |  |  | 
COc1ccc2c(c1)c1ccncc1n2C(C)C [compound (VII)] | − | ± | − |  |  |  |  | 
Cc1ccc2c(c1)c1ccnc(C(C)C)c1n2C [compound (XVI)] | − | − | − |  |  |  |  | 
Cc1nccc2c1[nH]c1ccccc12 [harman, 1-methyl-β-carboline, reference compound] | − | − | − | increase in neurite length |  |  |  | 
CCCCCCn1c2ccccc2c2ccncc21 [compound B] | − | − | − |  |  |  |  | 
C=CCn1c2ccccc2c2ccncc21 [compound (XX)] | − | ± | ± |  |  |  |  | 
CCn1c2ccccc2c2ccncc21 [compound F] | ± | ± | ± |  |  |  |  | 
COc1ccc2c(c1)c1ccncc1n2C [9-Me-6-MeO—BC (XVIII), 6-methoxy-9-methyl-9H-β-carboline] | + |  | ± |  | increase in neurite length | enormous, dose-dependent increase | up to ten times | 
CC(C)Cn1c2ccccc2c2ccncc21 [compound E] | + | ± | − |  |  |  |  | 
CN(C)c1ccc2c(c1)c1ccncc1n2C [compound (XIII)] | ± | ± | ± |  |  |  |  | 
CC(C)C(C)Cn1c2ccccc2c2ccncc21 (centres unmarked) [compound K] | ± | − | ± |  |  |  |  | 
Cc1ccc2c(c1)c1ccncc1n2C [compound (XVII)] | ± | ± | − |  |  |  |  | 
C/C=C/C(C)=C\n1c2ccccc2c2ccnc(Cl)c21 [compound (IX)] | − | − | − |  |  |  |  | 
C=CCn1c2ccccc2c2ccncc21 [compound D] | + | + | − |  |  |  |  | 
COc1nccc2c3cc(Cl)ccc3n(C)c12 [compound (XIV)] | − | − | − |  |  |  |  | 
COCCn1c2ccccc2c2ccncc21 [compound G] | ± | ± | + |  |  |  |  | 
COC(=O)CCn1c2ccccc2c2ccncc21 [compound J] | ± | − | ± |  |  |  |  | 
C#CCn1c2ccccc2c2ccncc21 [compound H] | + | ± | + |  |  |  |  | 
B1 |  |  |  |  |  |  |  | neuroprotective properties
B2 |  |  |  |  |  |  |  | neuroprotective properties
